Measured values reported in ChEMBL document CHEMBL1201862, “PubChem BioAssay data set” (2004).
The source made the active and inactive calls.

Key:
[1] = target: Nuclear receptor subfamily 5 group A member 2 (Homo sapiens, UniProt O00482); format: functional, cell-based;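 note: HEK293T cells transfected with LRH-1 and a StAR promoter luciferase reporter; potency for inhibitors that lower LRH-1 driven reporter light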
[2] = target: T1, Corticotropin-releasing factor receptor 2/Corticotropin-releasing factor-binding protein (Homo sapiens, UniProt P24387+Q13324); test: activators of CRF receptor 2 with binding protein – uHTS hits, confirmation (AID 602473); format: functional; details: read-out: EC50_Mean
T1 sequence (Q13324 whole entry): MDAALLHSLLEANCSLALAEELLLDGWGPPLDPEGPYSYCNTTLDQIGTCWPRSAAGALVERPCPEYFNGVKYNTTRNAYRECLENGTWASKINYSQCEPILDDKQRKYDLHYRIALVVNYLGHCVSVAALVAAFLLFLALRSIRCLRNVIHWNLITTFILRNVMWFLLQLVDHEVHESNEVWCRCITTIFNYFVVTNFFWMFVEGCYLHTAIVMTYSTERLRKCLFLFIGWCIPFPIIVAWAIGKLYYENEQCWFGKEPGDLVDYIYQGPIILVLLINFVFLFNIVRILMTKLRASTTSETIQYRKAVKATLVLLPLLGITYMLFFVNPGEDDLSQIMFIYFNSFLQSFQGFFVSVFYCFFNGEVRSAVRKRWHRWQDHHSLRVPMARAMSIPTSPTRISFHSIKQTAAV
T1 sequence (P24387 whole entry): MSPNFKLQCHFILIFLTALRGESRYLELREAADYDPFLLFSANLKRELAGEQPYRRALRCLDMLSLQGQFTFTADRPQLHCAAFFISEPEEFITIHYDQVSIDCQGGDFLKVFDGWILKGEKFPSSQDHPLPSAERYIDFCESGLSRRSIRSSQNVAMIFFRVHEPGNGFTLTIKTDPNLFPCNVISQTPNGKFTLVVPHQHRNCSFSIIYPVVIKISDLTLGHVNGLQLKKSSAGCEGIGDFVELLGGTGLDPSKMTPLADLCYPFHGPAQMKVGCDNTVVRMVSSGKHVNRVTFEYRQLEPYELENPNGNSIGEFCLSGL

[3] = target: Steroidogenic factor 1 (Homo sapiens, UniProt Q13285); test: Counterscreen for inverse agonists of the liver receptor homolog-1 (LRH-1; NR5A2): Luminescence-based cell-based high throughput dose response assay to identify inverse agonists of the Steroidogenic Factor 1 Nuclear Receptor (SF1; NR5A1).; format: functional
[4] = target: T1, Corticotropin-releasing factor receptor 2/Corticotropin-releasing factor-binding protein; test: Dose Response confirmation of uHTS hits for small molecule antagonists of the CRF-binding protein and CRF-R2 receptor complex.; format: functional; details: read-out: IC50_Mean
[5] = target: T2, Leucine aminopeptidase (Plasmodium falciparum 3D7, UniProt Q8IL11); test: P. falciparum M17LAP inhibitors, primary screen, biochemical, fluorogenic H-Leu-NHMec substrate, 1536-well (AID 1619); format: functional
T2 sequence (Q8IL11 whole entry): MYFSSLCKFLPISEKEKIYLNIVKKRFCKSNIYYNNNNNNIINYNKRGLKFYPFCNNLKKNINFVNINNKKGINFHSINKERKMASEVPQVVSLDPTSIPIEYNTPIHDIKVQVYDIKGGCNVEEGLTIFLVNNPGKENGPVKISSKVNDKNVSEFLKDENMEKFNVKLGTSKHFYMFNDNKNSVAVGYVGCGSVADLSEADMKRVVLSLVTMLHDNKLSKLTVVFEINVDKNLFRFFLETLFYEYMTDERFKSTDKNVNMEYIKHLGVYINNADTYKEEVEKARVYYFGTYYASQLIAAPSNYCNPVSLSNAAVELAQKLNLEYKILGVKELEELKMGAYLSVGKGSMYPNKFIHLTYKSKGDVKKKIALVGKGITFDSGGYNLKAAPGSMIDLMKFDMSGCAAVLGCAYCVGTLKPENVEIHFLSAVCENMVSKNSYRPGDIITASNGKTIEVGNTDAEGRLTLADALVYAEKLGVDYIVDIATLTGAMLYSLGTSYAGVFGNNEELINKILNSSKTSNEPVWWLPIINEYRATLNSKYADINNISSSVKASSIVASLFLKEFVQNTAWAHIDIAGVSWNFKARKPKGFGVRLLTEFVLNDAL

[6] = StAR promoter reporter inhibition counter-screen, dose response, counter-screen for LRH-1 inverse agonist project, cell-based, luminescence, luciferase reporter (AID 651969); format: functional
[7] = target: T3, Probable nicotinate-nucleotide adenylyltransferase (Staphylococcus aureus (strain N315), UniProt P65502); format: functional, Staphylococcus aureus subsp. aureus N315; details: read-out: IC50_Mean;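 for IC50 Mean: confirmatory dose-response retesting of NadD inhibitor hits first found in an ultra-high-throughput screen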
[8] = target: Genome polyprotein (dengue virus type 2, UniProt P29990); test: Dengue-2 NS5 methyltransferase inhibitors, primary screen, biochemical, confirmation dose response (AID 588689); format: functional
[9] = target: T3, Probable nicotinate-nucleotide adenylyltransferase; format: functional, Staphylococcus aureus subsp. aureus N315
[10] = target: T4, Carboxy-terminal domain RNA polymerase II polypeptide A small phosphatase 1 (Homo sapiens, UniProt Q9GZU7); test: inhibitors of CTDSP1, concentration-response testing, biochemical assay, absorbance-based, actives from ultra-high-throughput screening (AID 540297); format: functional
T4 sequence (Q9GZU7 whole entry): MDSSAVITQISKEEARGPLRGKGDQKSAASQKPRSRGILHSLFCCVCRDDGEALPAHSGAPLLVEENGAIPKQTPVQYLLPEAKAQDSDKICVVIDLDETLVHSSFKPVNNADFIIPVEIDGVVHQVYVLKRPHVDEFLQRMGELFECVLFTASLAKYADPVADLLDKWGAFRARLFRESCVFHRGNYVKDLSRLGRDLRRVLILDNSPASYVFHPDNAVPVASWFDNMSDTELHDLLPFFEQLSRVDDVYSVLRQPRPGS

[11] = target: Peroxisome proliferator-activated receptor gamma/Nuclear receptor coactivator 3 (Homo sapiens, UniProt P37231); format: functional;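 note: agonist potency for raising coactivator recruitment to the receptor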
[12] = target: T5, Low molecular weight phosphotyrosine protein phosphatase (Homo sapiens, UniProt P24666); format: functional; details: read-out: IC50_Mean
T5 sequence (P24666 whole entry): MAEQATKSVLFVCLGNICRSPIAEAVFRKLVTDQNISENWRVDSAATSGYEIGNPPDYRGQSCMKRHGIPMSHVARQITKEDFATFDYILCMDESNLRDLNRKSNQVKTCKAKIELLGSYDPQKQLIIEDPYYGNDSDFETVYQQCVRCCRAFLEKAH

[13] = target: T6, SUMO-activating enzyme (Homo sapiens, UniProt Q9UBT2); test: inhibitors of in vitro SUMOylation cascade, primary screen, biochemical, HTRF, uHTS (AID 2006); format: protein-complex assay
[14] = growth suppression of PTEN-null colon cells, dose response, cell-based, HCT116 PTEN knockout (AID 1047); format: functional;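 note: HCT116 colon tumor cells with PTEN knocked out; cells exposed to compound for 60 hours before readout; potency for loss of cell viability measured by luminescence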
[15] = target: T7, Tyrosine-protein phosphatase non-receptor type 22 (Homo sapiens, UniProt Q9Y2R2); test: LYP phosphatase inhibition for selectivity, dose response, selectivity assay for LMPTP inhibitor project, biochemical, fluorescence, LYP catalytic domain (AID 652006); format: functional; details: read-out: IC50_Mean
T7 sequence (Q9Y2R2 whole entry): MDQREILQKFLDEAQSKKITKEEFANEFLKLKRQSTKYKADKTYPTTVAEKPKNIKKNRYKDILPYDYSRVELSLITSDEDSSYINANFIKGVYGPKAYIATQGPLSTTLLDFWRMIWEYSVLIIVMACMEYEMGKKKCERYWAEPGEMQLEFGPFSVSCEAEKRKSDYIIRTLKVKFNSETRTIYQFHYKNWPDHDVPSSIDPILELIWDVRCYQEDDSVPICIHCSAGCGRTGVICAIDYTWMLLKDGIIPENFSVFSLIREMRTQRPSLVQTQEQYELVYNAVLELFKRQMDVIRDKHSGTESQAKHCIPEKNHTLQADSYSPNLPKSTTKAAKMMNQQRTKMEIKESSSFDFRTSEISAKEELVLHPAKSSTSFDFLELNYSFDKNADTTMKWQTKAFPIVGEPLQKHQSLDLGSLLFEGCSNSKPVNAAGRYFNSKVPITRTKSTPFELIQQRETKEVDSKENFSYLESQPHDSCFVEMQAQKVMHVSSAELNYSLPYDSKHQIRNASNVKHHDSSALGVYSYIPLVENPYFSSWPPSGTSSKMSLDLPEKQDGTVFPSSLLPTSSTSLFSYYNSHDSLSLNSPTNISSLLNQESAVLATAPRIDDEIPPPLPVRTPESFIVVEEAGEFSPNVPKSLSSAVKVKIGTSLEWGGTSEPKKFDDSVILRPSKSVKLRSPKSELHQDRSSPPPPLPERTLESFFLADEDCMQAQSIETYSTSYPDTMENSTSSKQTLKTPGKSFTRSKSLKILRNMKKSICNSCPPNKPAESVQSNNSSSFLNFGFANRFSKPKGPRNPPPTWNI

[16] = target: Peroxisome proliferator-activated receptor gamma/Nuclear receptor coactivator 1 (Homo sapiens, UniProt P37231); format: functional;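 note: agonist potency as compounds enhance coactivator SRC-1 recruitment to PPARgamma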
[17] = target: T5, Low molecular weight phosphotyrosine protein phosphatase; format: functional; details: read-out: IC50_Mean; remark: listed apart in the source
[18] = target: Peroxisome proliferator-activated receptor gamma/Nuclear receptor coactivator 2 (Homo sapiens, UniProt P37231); format: functional;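 note: agonist potency for raising coactivator recruitment to the receptor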
[19] = growth suppression of beta-catenin-knockout colon cells, dose response, cell-based, HCT116, human colon tumor (AID 1045); format: functional;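 note: HCT116 colon tumor cells with beta catenin knocked out; cells exposed to compound for 60 hours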
[20] = target: T6, SUMO-activating enzyme; test: SUMOylation inhibitor hit validation, confirmation, SUMOylation inhibitor project, biochemical, AlphaScreen (AID 2018); format: functional
[21] = test system: H9c2; test: cells; format: functional, cell-based; details: Rattus norvegicus, H9c2, Myocardium;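 note: confirmatory concentration-response retest of ultra-high-throughput screening hits for modulation of myocardial damage; cell death induced by hydrogen peroxide oxidative stress; compound pretreatment for 60 min then peroxide exposure for 2 h; potency is for protecting the cells against peroxide damage rather than for killing them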
[22] = target: Beta-lactamase (Salmonella choleraesuis (strain SC-B67), UniProt Q5J463)
[23] = target: Beta-lactamase (Pseudomonas aeruginosa, UniProt Q79MP6);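 note: biochemical dose-response test of metallo-beta-lactamase enzyme inhibition, read out by epi-absorbance; purified recombinant IMP-1 metallo-beta-lactamase with nitrocefin as substrate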
Sequence of Beta-lactamase (Pseudomonas aeruginosa, UniProt Q79MP6) (Q79MP6 whole entry): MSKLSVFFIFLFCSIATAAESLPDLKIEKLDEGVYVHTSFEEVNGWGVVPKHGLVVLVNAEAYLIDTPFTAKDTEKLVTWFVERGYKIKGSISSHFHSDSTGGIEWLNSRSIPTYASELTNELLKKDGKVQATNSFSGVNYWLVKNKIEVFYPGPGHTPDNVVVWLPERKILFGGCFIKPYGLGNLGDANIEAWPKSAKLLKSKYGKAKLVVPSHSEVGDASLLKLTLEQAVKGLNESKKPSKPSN

T6 sequence (Q9UBE0 whole entry): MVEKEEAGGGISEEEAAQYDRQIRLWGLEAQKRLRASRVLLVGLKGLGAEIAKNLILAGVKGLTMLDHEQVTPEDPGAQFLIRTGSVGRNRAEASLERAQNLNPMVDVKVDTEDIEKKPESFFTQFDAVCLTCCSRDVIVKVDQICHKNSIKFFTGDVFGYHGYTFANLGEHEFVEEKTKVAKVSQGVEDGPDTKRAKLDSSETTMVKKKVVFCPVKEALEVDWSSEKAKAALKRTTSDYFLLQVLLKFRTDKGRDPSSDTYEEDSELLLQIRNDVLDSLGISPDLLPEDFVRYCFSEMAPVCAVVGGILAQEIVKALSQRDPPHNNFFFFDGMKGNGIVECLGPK
T6 sequence (Q9UBT2 whole entry): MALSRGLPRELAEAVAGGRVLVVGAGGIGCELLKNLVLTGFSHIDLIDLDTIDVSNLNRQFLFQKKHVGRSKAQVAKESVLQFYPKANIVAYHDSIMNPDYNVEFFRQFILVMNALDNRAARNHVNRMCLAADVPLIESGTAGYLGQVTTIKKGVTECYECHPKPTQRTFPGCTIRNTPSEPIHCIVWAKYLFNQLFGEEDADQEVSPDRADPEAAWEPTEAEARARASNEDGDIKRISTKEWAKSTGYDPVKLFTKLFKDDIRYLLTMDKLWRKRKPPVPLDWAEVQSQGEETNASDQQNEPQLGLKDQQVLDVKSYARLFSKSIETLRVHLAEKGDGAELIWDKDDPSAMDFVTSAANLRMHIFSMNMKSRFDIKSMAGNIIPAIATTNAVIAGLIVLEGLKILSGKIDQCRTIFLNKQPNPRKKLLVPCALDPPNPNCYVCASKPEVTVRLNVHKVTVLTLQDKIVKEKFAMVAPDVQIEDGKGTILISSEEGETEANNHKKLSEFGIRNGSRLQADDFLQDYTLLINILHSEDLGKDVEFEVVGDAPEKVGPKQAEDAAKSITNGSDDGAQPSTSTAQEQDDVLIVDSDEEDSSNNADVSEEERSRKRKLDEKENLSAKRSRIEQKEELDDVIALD
Sequence of Nuclear receptor subfamily 5 group A member 2 (O00482 whole entry): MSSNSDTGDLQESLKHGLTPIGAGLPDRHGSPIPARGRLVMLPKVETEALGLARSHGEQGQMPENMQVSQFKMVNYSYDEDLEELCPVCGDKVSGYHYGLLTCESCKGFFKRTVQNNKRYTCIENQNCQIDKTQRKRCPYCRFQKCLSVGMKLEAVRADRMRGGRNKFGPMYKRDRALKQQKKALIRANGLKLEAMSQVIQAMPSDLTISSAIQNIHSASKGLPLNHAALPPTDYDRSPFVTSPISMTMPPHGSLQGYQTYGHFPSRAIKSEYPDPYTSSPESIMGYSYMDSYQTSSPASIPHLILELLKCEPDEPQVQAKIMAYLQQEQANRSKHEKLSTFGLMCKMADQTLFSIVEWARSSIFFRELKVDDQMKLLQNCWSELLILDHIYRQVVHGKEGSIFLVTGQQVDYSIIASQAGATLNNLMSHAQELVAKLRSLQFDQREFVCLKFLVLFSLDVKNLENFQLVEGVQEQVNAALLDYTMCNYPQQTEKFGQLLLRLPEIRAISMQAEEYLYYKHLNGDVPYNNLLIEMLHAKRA
T3 sequence (P65502 whole entry): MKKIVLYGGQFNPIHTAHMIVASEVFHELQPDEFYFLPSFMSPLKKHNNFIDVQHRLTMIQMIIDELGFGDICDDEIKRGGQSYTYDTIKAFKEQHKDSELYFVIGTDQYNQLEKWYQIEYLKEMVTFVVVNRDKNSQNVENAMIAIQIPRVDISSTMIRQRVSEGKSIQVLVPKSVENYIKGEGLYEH
Sequence of Steroidogenic factor 1 (Q13285 whole entry): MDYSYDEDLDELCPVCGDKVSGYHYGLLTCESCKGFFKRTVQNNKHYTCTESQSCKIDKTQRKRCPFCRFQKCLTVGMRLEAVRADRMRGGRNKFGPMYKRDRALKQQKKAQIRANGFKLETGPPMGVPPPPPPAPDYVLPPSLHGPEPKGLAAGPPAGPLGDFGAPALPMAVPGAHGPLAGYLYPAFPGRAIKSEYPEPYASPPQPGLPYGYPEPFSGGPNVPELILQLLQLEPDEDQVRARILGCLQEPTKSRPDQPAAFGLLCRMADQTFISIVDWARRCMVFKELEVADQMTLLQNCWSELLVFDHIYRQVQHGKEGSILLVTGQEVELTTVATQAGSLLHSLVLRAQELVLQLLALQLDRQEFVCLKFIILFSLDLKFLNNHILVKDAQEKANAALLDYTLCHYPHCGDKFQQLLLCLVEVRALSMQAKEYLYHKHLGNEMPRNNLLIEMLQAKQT
Sequence of Beta-lactamase (Salmonella choleraesuis (strain SC-B67), UniProt Q5J463) (Q5J463 whole entry): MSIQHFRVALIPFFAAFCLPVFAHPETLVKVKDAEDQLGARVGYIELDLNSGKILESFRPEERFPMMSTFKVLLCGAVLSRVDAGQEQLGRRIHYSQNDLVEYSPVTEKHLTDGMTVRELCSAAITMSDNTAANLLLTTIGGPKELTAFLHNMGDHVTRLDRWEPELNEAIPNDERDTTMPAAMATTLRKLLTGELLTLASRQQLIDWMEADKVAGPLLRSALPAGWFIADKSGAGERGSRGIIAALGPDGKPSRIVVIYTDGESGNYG
Sequence of Peroxisome proliferator-activated receptor gamma/Nuclear receptor coactivator 1 (P37231 whole entry): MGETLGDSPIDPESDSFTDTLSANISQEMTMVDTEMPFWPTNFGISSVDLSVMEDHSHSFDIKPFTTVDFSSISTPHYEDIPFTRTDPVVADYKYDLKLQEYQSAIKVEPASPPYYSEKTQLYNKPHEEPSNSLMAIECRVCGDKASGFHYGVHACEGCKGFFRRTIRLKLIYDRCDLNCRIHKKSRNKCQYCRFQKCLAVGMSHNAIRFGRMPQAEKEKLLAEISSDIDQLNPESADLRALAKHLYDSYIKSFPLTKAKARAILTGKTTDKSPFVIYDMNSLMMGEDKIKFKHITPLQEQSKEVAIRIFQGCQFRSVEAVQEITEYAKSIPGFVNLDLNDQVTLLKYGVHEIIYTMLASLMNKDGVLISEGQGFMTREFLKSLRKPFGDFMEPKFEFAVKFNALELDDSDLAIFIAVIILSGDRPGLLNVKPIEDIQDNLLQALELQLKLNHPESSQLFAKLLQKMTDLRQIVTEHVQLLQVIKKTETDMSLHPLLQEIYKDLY
Sequence of Peroxisome proliferator-activated receptor gamma/Nuclear receptor coactivator 1 (Q15788 whole entry, further chain): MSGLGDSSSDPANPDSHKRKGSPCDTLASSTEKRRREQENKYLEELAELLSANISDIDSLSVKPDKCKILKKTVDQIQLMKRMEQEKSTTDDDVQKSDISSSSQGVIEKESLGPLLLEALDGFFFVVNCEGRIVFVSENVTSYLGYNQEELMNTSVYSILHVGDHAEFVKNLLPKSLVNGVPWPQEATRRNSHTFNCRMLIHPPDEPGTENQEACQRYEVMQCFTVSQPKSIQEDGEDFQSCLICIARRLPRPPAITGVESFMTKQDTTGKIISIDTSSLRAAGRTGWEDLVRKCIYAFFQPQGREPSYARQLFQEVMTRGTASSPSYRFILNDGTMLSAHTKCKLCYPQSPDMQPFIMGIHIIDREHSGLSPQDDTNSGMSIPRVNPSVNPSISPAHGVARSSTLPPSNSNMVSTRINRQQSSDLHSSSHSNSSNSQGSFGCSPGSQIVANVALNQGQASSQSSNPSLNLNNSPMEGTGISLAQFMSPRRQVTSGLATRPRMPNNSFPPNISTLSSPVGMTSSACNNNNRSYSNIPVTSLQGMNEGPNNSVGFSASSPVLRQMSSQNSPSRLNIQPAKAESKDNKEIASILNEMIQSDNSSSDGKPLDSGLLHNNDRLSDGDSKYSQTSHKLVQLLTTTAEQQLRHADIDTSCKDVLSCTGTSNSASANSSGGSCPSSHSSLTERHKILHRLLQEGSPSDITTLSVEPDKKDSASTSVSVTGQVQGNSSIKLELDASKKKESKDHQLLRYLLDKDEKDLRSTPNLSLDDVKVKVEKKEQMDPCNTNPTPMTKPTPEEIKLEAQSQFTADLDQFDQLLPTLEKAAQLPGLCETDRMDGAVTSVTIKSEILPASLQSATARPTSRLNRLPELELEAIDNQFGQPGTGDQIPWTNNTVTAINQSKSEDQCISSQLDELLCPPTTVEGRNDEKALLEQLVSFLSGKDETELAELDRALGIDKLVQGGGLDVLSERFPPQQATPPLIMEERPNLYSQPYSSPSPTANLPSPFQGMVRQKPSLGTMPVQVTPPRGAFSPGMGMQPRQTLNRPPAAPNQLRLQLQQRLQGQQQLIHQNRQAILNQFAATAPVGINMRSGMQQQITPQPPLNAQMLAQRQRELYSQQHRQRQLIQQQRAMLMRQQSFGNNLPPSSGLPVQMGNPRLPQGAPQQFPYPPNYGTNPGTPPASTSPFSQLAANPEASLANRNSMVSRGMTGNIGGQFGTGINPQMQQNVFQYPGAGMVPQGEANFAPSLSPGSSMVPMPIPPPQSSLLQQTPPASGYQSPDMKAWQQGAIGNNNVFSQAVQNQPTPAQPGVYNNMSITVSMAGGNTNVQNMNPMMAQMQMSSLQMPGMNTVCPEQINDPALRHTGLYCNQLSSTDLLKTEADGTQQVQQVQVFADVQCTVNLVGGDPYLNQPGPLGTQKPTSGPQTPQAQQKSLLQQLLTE

For Cc1cccc(NC(=O)CSc2nc3n[nH]cc3c(=O)[nH]2)c1C, which IC50 [1] is on record?
Its IC50 is 6.29 µM (active).

What about the EC50 [2] of the same compound?
The EC50 was > 53 µM (inactive).

What about the IC50 [3] of the same compound?
Its IC50 is 2.59 µM (active).

What about the IC50 [4] of the same compound?
The IC50 was > 47.1 µM (inactive).

What about the IC50 [5] of the same compound?
Its IC50 is 4.46 µM (active).

With O=[N+]([O-])c1ccc(N2CCN(S(=O)(=O)c3ccccc3)CC2)cc1NCc1cccnc1 as the compound, how does the IC50 [1] read?
Its IC50 is 14.8 µM (inactive).

And the IC50 [3]?
Its IC50 is 5.39 µM (active).

And the IC50 [6]?
The IC50 was 35.9 µM (inactive).

What does the source list for CCOc1ccc(NS(=O)(=O)c2ccc(Cl)c(NN=C3C(=O)NC(=S)NC3=O)c2)cc1Br?
IC50 [7]: 55 µM (active); IC50 [8]: 44.1 µM (active); IC50 [9]: 5.55 µM (active)

For CCOC(=O)Cn1/c(=N/C(=O)c2sc3ccccc3c2Cl)sc2cc(S(N)(=O)=O)ccc21, which IC50 [10] is on record?
Its IC50 is 2.06 µM (active).

What about the EC50 [11] of the same compound?
Its EC50 is 14.3 µM (not active).

What about the IC50 [12] of the same compound?
Its IC50 is 16.4 µM (active).

What about the IC50 [13] of the same compound?
The IC50 was 4.97 µM (active).

And the EC50 [14]?
The EC50 was 72.5 µM (active).

And the IC50 [15]?
Its IC50 is 52.2 µM (inactive).

And the EC50 [16]?
Its EC50 is 11.3 µM (not active).

What about the IC50 [17] of the same compound?
Its IC50 is 27.7 µM (inactive).

What about the EC50 [18] of the same compound?
Its EC50 is 7.96 µM (active).

What about the EC50 [19] of the same compound?
The EC50 was 46.4 µM (active).

What about the IC50 [20] of the same compound?
Its IC50 is 11.8 µM (active).

For O=C(Nc1ccc2oc(-c3ccccc3F)nc2c1)c1ccc([N+](=O)[O-])o1, which IC50 [10] is on record?
Its IC50 is 1.23 µM (active).

And the IC50 [21]?
The IC50 was > 79 µM (inactive).

What about the IC50 [12] of the same compound?
Its IC50 is 3.79 µM (active).

What about the IC50 [22] of the same compound?
The IC50 was > 59.6 µM (inactive).

What about the IC50 [15] of the same compound?
Its IC50 is 7.64 µM (active).

What about the IC50 [17] of the same compound?
The IC50 was 3.72 µM (active).

What about the IC50 [23] of the same compound?
Its IC50 is > 59.6 µM (inactive).
